# Test results reported in patent EP0418064B1, “Naphthalene and tetrahydronaphthalene gem-diphosphonate derivatives” (SYMPHAR S.A., priority 1989, dated 1991).
# Tested on: Rat liver homogenates
# Test: Antioxidant activity: FeSO₄-induced peroxide production in rat liver homogenates (thiobarbituric acid reaction)
# Type: biochemical
# Settings: rat liver homogenate incubated with FeSO₄; peroxide determined by thiobarbituric acid reaction, malonaldehyde as standard; read-out: IC₅₀
# Experimental: Rat liver homogenates were prepared according to Fraga, C.G. et al. Free Radicals Biol. Med., 4, 155, 1988 and Kornburst D.J. et al. Lipids 15, 315, 1980.
# Peroxides were generated by incubation of the homogenate with the FeSO₄ as described by Quitanilha A.T. et al. Ann. N.Y., Acad. Sci. 393, 32, 1982.
# Compounds to be tested for their antioxidant activity were dissolved in DMSO and added to the incubation mixture. The amount of peroxide produced was determined by the thiobarbituric acid reaction using malonaldehyde as standard.
row,Structure (SMILES),IC50
1,"CCOP(=O)(OCC)C(=Cc1cc(C(C)(C)C)c(O)c2ccccc12)P(=O)(OCC)OCC [Example 1, Tetraethyl 2-[3-t-butyl-4-hydroxynaphthyl]ethenylidene-1,1-diphosphonate]",1.5 µM
2,"CC(C)OP(=O)(OC(C)C)C(=Cc1cc(C(C)(C)C)c(O)c2ccccc12)P(=O)(OC(C)C)OC(C)C [Example 2, Tetraisopropyl 2-[3-t-butyl-4-hydroxynaphthyl]ethenylidene-1,1-diphosphonate]",0.7 µM
3,"CCOP(=O)(OCC)C(=Cc1cc(C(C)(C)C)c(O)c2c1CCCC2)P(=O)(OCC)OCC [Example 6, Tetraethyl 2-(3-tert-butyl-4-hydroxy-5,6,7,8-tetrahydronaphthyl)-ethenylidene-1,1-diphosphonate]",7 µM
4,"CC(C)OP(=O)(OC(C)C)C(=Cc1cc(C(C)(C)C)c(O)c2c1CCCC2)P(=O)(OC(C)C)OC(C)C [Example 8, Tetraisopropyl 2-[3-tert-butyl-4-hydroxy-5,6,7,8-tetrahydronaphthyl]-ethenylidene-1,1-diphosphonate]",2.5 µM
